Measured values as given in US11161825B2, “4-oxo-2,3,4,5-tetrahydro-1H-1,5-benzodiazepine-7-carboxamides” (Bayer Aktiengesellschaft, priority 2017, dated 2021).

How the values were obtained:
SMYD3 = target: T1, SMYD3 (Homo sapiens, UniProt Q9H7B4); test: SMYD3 Scintillation Proximity Assay (SPA), methylation of MAP3K2 Peptide; type: biochemical; settings: SMYD3 full length enzyme 10 nM, 3H-SAM 125 nM, MAP3K2 Peptide 1 μM, 120 min at 22° C.
T1 construct: The SMYD3 full length enzyme was produced in-house by expression (with an N-terminal 6×His tag) in E. coli; 6xHis (N); made in house; host or cells: E. coli
T1 sequence (Q9H7B4 1-428): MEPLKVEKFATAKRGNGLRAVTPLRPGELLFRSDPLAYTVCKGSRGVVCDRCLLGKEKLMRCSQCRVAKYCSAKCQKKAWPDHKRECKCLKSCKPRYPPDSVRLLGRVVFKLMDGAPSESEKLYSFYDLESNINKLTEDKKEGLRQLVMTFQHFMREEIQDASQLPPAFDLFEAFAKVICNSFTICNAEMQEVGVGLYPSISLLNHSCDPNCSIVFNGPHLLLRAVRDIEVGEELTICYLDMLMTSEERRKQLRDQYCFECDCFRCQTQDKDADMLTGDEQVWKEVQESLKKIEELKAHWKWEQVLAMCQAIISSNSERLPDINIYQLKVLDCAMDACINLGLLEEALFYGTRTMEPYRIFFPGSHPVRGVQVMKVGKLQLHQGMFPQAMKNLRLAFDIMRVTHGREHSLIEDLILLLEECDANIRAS
Procedure: SMYD3 Scintillation Proximity Assay (SPA)
The SMYD3 full length enzyme was produced in-house by expression (with an N-terminal 6×His tag) in E. coli and purification by affinity chromatography on a Ni-NTA Sepharose column followed by a size exclusion chromatography step on a Superdex 200 16/60 column (GE Healthcare).
To this end, 100-fold concentrated compound solutions (in DMSO) were previously prepared by serial dilution (1:3.4) of 2 mM stocks in a clear low volume 384-well source microtiter plate (Greiner Bio-One), from which 100 nl of compounds were transferred into a white low volume test microtiter plate from the same supplier. […] The resulting mixture (5 μl final volume) was shortly centrifuged (2 min., 1500 rpm) and incubated at 22° C. during 120 min. […] Plates containing the stopped reaction were sealed with transparent adhesive foil (Perkin Elmer), centrifuged (2 min., 1500 rpm), and further incubated overnight at 4° C. in order to allow the SPA signals to develop. Subsequently, the amount of product was evaluated by measuring the energy transfer from the […] emitted by the 3H-labeled substrate to the scintillator co-polymerized in the bead's matrix, using a TopCount NXT scintillation counter (Packard) with the standard instrument settings for this purpose. The resulting scintillation counts were taken as indicator for the amount of methylated peptide per well. […] IC50 values were calculated by fitting the normalized inhibition data to a 4-parameter logistic equation using the XLFit analysis software (IDBS).

[1] = target: T2, untagged full length SMYD3 (Homo sapiens, UniProt Q9H7B4); test: Thermal Shift Assay; type: binding; settings: protein 1.5-2.0 μM, 5× SYPRO Orange, scans 25° C. to 80° C.; control 4% DMSO
T2 construct: As protein untagged full length SMYD3 was used
T2 sequence (Q9H7B4 1-428): T1 sequence (Q9H7B4 1-428)
Procedure: Thermal Shift Assay Thermal melting experiments were performed with a ViiA™ Real-Time PCR machine (Thermo Fisher Scientific) in 384-well microliter plate with a final volume of 5 μL. Melting curves were obtained at a protein concentration of 1.5-2.0 μM and 5× SYPRO Orange (Invitrogen) using buffer containing 20 mM Tris pH7.0; 150 mM NaCl; 1.0 mM DTT. As protein untagged full length SMYD3 was used. […] As control 4% DMSO was used. Scans were measured from 25° C. to 80° C. at a scanning rate of 0.1° C./sec. All TSA data were analyzed by using Genedata Assay Analyzer.

IC50 (SMYD3): 24.4 µM
Thermal shift assay (° C.) [1]: 1.83 °C
Compound: CCCCNC(=O)c1ccc2c(c1)NC(=O)CC(C)N2C(=O)CCC1CCCC1 (racemic) [Example 51, N-butyl-1-(3-cyclopentylpropanoyl)-2-methyl-4-oxo-2,3,4,5-tetrahydro-1H-1,5-benzodiazepine-7-carboxamide]
